Data set [1] relates to abdominal aorta. The note with it: for Maximum Response, relaxation / Maximum Response, contraction / EC50: abdominal aorta; for Maximum Response, relaxation: after sub-maximal contraction with PGF2a; for EC50: read-out: EC50, contractile response.
Experimental: (§1) Aortic Vascular Reactivity: Abdominal aortic rings were assessed for vascular reactivity as previously described (30). Briefly, mice were euthanized by overdose of pentobarbital (50 mg, i.p.), and the abdominal aorta was quickly removed and placed in Kreb's buffer containing (in mmol/L): 118.3 NaCl, 4.7 KCl, 1.2 MgSO4, 1.2 KH2PO4, 25 NaHCO3, 2.5 CaCl2 and 11 glucose. Vascular rings (4-5 mm in length) were suspended in oxygenated Kreb's buffer (95% O2/5% CO2) in organ baths at 37° C. and connected to a force transducer via steel hooks. Resting tension was adjusted to 0.5 grams over 45 minutes.
(§2) Statistics: Data were analyzed by ANOVA with repeated measures as appropriate. Post-hoc analyses were performed using Bonferroni multiple-comparisons procedures. EC50 and maximum response calculations were performed by fitting individual dose-response data sets to a four-parameter logistic function (Hillslope method); y=min+(max−min)/(1+(x/EC50)̂Hill slope). […] All analytical comparisons were performed using SigmaStat/SigmaPlot (Systat). All data are presented as mean±sem.
Data set [2] has as its system abdominal aorta. Kind of data set: tissue or blood. Conditions: Mus musculus.
Experimental: as §1, §2
The subject of data set [3] is 2°-branch mesenteric artery. Kind of data set: tissue or blood. On the set-up: species or system mice. The note with it: for Maximum Response, contraction / EC50: mesenteric artery; for EC50: read-out: EC50, contractile response. On the procedure: Mesenteric Artery Vascular Reactivity: Secondary branches of mesenteric artery were dissected and placed in chilled oxygenated (21% O2, 5% CO2, and 74% N2) Kreb's buffer. A segment (˜1 mm long) of artery was transferred to a vessel chamber (DMT), cannulated with glass micropipettes and secured with silk ligatures. The artery was slowly pressurized to 40 mmHg without flow. After 30 min equilibration, vessel viability was tested by constriction response to 100 mM KCl. Vascular responses to PE (10-9-10-5 mol/L), AVP (10-12-10-7 mol/L), and ET-1 (10-11-10-8 mol/L) were then assessed. The artery was then superfused with calcium-free Krebs buffer containing 10-5 mol/L sodium nitroprusside and 2 mmol/L EGTA to maximally dilate the vessel. Internal and external diameters were measured at 75 mm Hg. Wall thickness, media/lumen ratio and cross sectional area (CSA) were calculated as previously described by Neves, et al. (58).
Statistics: Data were analyzed by ANOVA with repeated measures as appropriate. Post-hoc analyses were performed using Bonferroni multiple-comparisons procedures. EC50 and maximum response calculations were performed by fitting individual dose-response data sets to a four-parameter logistic function (Hillslope method); y=min+(max−min)/(1+(x/EC50)̂Hill slope). All mRNA fold changes were calculated using the Livak method (51). All analytical comparisons were performed using SigmaStat/SigmaPlot (Systat). All data are presented as mean±sem.

The test system of data set [4] is sRA mice. As to the kind of experiment: Blood pressure by tail-cuff during chronic subcutaneous infusion. Type of data set: in vivo. The note with it: 22 ng/h sc by osmotic minipump, 10 days.
Experimental: Here we first examined blood pressure in sRA mice using a Visitech Systems BP-2000 tail-cuff blood pressure monitoring system, as previously described (79). Briefly, animals were acclimated to warmed restraint boxes daily for 1 wk. Once acclimated, 30 measurements of systolic blood pressure were averaged from each animal daily for 2 wk to assess baseline blood pressure. Conivaptan (Vaprisol, YM 087, 22 ng/h sc, Baxter Healthcare) or tolvaptan (OPC-41061, 22 ng/h sc, Sigma Aldrich) was delivered to distinct subsets of mice by osmotic minipump (model 1004, Alzet). After osmotic minipump implantation, pressures were recorded daily for 10 days to assess drug effects.
The subject of data set [5] is sRA and control littermate mice. As to the kind of experiment: Blood chemistry following tolvaptan infusion (iSTAT CHEM8+). Type of data set: in vivo. The note with it: for Anion gap / BUN / Chloride / Glucose / Hematocrit / Ionized calcium / Potassium / Sodium / Total CO2 / Creatinine: tolvaptan 22 ng/h, 10 days sc; for Creatinine: lower detection limit 0.20 mg/dl. On the procedure: Blood and urine analyses: Plasma was obtained by collecting whole blood by submandibular bleed into lithium heparin coated tubes, then centrifuged at 5,000×g for 5 minutes, and the supernatant transferred to a fresh tube and frozen at −80° C. until analysis. Urine was collected using Nalgene single-mouse metabolism cages as previously described (20). Copeptin was measured using an ELISA kit (USCN Life Sciences), according to the manufacturer's instructions. Blood chemistries and urine creatinine were determined using a handheld iSTAT clinical chemistry analyzer (Abbott), with CHEM8+ cartridges. Urine protein was determined using a bicinchoninic acid assay kit (Thermo Fisher/Pierce), according to the manufacturer's instructions.

The subject of data set [6] is sRA mice. Kind of data set: Radiotelemetric blood pressure, heart rate and physical activity during chronic subcutaneous infusion. Format: in vivo. Conditions: for radiotelemetric blood pressure: sRA mice, 22 ng/h sc infusion (conivaptan 18 days, one female; tolvaptan 10 days, n=4 female). The procedure:
Blood pressure (telemetry). Radiotelemetric blood pressures were recorded from the carotid artery essentially as previously reported (27). Briefly, a telemeter probe (DSI, model TA11PA-C10) was inserted into the common carotid artery under ketamine-xylazine anesthesia. After >2 days of recovery, blood pressure, heart rate, and spontaneous physical activity were recorded for 30 s every 5 min using the Dataquest program (DSI). After baseline recordings, mice were chronically delivered conivaptan and tolvaptan via osmotic minipump that was implanted through an interscapular incision into the subcutaneous space of the back under isoflurane anesthesia.

[7] abbreviates: female sRA mouse, 22 ng/h sc, 18 days.

Structures are written as SMILES. Read-outs that look alike come from different tables or passages of the source.

On to `CC(=O)OCC[N+](C)(C)C` [Acetylcholine, acetylcholine], for which the Maximum Response, relaxation came out at 78.9 ± 3.3% in the data set on abdominal aorta [1] (male control mice) and 70.4 ± 8.9% in the data set on abdominal aorta [1] (male sRA mice). The EC50 in the data set on abdominal aorta [2] (read-out: EC50, relaxation response, abdominal aorta, male control mice, after sub-maximal contraction with PGF2a) was found to be 130 ± 35 nM; in the data set on abdominal aorta [2] (read-out: EC50, relaxation response, abdominal aorta, male sRA mice, after sub-maximal contraction with PGF2a) it was 879 ± 298 nM.
With `CC[C@H](C)[C@H](NC(=O)[C@H](Cc1ccc(O)cc1)NC(=O)[C@@H](NC(=O)[C@H](CCCNC(=N)N)NC(=O)[C@@H](N)CC(=O)O)C(C)C)C(=O)N[C@@H](Cc1c[nH]cn1)C(=O)N1CCC[C@H]1C(=O)N[C@@H](Cc1ccccc1)C(=O)O` [Angiotensin II, angiotensin II], the “Maximum Response, contraction” value in the data set on abdominal aorta [1] (male control littermate mice) worked out at 0.32 ± 0.03 g; in the data set on abdominal aorta [1] (male sRA mice), 0.38 ± 0.03 g.
On to `CC[C@H](C)[C@H](NC(=O)[C@H](CC(=O)O)NC(=O)[C@H](CC(C)C)NC(=O)[C@H](Cc1c[nH]cn1)NC(=O)[C@@H]1CSSC[C@H](N)C(=O)N[C@@H](CO)C(=O)N[C@H]2CSSC[C@H](NC(=O)[C@H](CCC(=O)O)NC(=O)[C@H](CCCCN)NC(=O)[C@H](CC(=O)O)NC(=O)[C@H](CCSC)NC(=O)[C@H](CC(C)C)NC(=O)[C@H](CO)NC(=O)[C@H](CO)NC2=O)C(=O)N[C@@H](C(C)C)C(=O)N[C@@H](Cc2ccc(O)cc2)C(=O)N[C@@H](Cc2ccccc2)C(=O)N1)C(=O)N[C@H](C(=O)N[C@@H](Cc1c[nH]c2ccccc12)C(=O)O)[C@@H](C)CC` [Endothelin-1, endothelin-1], for which the “Maximum Response, contraction” value in the data set with abdominal aorta [1] (male control littermate mice) was found to be 0.45 ± 0.04 g; with abdominal aorta [1] (male sRA mice), 0.55 ± 0.09 g; in data set [3] (male control littermate mice), 67.8 ± 4.3%; in data set [3] (male sRA mice) it was 58 ± 4.6%. For the same compound, the EC50 turned out to be 3.4 ± 0.33 nM in the data set with abdominal aorta [1] (male control littermate mice), 5.19 ± 0.93 nM with abdominal aorta [1] (male sRA mice), 1.68 ± 0.43 nM in data set [3] (male control littermate mice) and 0.45 ± 0.17 nM in data set [3] (male sRA mice).
Regarding `CNC[C@H](O)c1cccc(O)c1` [Phenylephrine, phenylephrine], the “Maximum Response, contraction” value came out at 1.18 ± 0.05 g in the data set with abdominal aorta [1] (male control littermate mice), 1.02 ± 0.10 g with abdominal aorta [1] (male sRA mice), 67.3 ± 3% in data set [3] (male control littermate mice) and 64.5 ± 4.1% in data set [3] (male sRA mice). Also, the EC50 with abdominal aorta [2] (read-out: EC50, contractile response, abdominal aorta, male control littermate mice) was 1900 nM; with abdominal aorta [2] (read-out: EC50, contractile response, abdominal aorta, male sRA mice), 2430 nM; in data set [3] (Mus musculus, male control littermate mice), 1460 nM; in data set [3] (Mus musculus, male sRA mice) it was 560 ± 80 nM.
`CCCCC[C@H](O)/C=C/[C@@H]1[C@@H](C/C=C\CCCC(=O)O)[C@@H](O)C[C@H]1O` [Prostaglandin F2α, prostaglandin F2a]: in the data set on abdominal aorta [1] (male control littermate mice), the “Maximum Response, contraction” value is reported as 1.59 ± 0.06 g and the EC50 is 4600 nM. Also, in the data set on abdominal aorta [1] (male sRA mice), the “Maximum Response, contraction” value came to 1.50 ± 0.10 g and the EC50 is 3600 nM.
Take `Cc1ccccc1C(=O)Nc1ccc(C(=O)N2CCC[C@@H](O)c3cc(Cl)ccc32)c(C)c1` [Tolvaptan, tolvaptan]: the “systolic blood pressure (tail-cuff), effect on hypertension” value with sRA mice [4] is listed as “nearly identical normalization of blood pressure”. In data set [5] (female control mice), this compound gave an Anion gap of 17.0 ± 1.5 mM, a BUN of 18.4 ± 0.9 mg/dL, a Chloride of 112.4 ± 0.5 mM and a Glucose of 190 ± 13 mg/dL. In data set [5] (female control mice), the Hematocrit is 45.4 ± 0.7 % RBC, the Ionized calcium is 1.19 ± 0.05 mM, the Potassium is recorded as 6.4 ± 0.1 mM and the Sodium is reported as 146.2 ± 0.7 mM. Besides, in data set [5] (female control mice), the “Total CO2” value was determined as 24.0 ± 1.1 mM and the Creatinine was 0.24 ± 0.02 mg/dL. In data set [5] (female sRA mice), the Anion gap is 18.5 ± 0.7 mM, the BUN was 24.5 ± 1.7 mg/dL, the Chloride is recorded as 105.2 ± 1.6 mM and the Glucose came to 136 ± 15 mg/dL. In data set [5] (female sRA mice), the Hematocrit came out at 49.8 ± 1.1 % RBC, the Ionized calcium was 1.18 ± 0.03 mM, the Potassium is reported as 5.3 ± 0.3 mM and the Sodium is recorded as 146.3 ± 0.7 mM. Besides, in data set [5] (female sRA mice), the “Total CO2” value was 28.8 ± 1.7 mM and the Creatinine is 0.33 ± 0.04 mg/dL. In data set [5] (male control mice), this compound displayed an Anion gap of 16.3 ± 0.5 mM, a BUN of 21.5 ± 0.9 mg/dL, a Chloride of 115.5 ± 0.3 mM and a Glucose of 182 ± 7 mg/dL. In data set [5] (male control mice), the Hematocrit came to 43.8 ± 1.1 % RBC, the Ionized calcium was found to be 1.18 ± 0.04 mM, the Potassium was 6.6 ± 0.5 mM and the Sodium is on record as 148.3 ± 1.3 mM. Also, in data set [5] (male control mice), the “Total CO2” value turned out to be 24.0 ± 0.8 mM and the Creatinine was 0.25 ± 0.03 mg/dL. In addition, in data set [5] (male sRA mice), the Anion gap stood at 21.0 ± 2.4 mM, the BUN amounted to 27.3 ± 2.1 mg/dL, the Chloride was 107.0 ± 2.7 mM and the Glucose turned out to be 181 ± 28 mg/dL. For the same compound, in data set [5] (male sRA mice), the Hematocrit worked out at 52.0 ± 1.1 % RBC, the Ionized calcium amounted to 1.18 ± 0.03 mM, the Potassium was 5.4 ± 0.1 mM and the Sodium came to 147.5 ± 1.9 mM. In data set [5] (male sRA mice), the “Total CO2” value came out at 26.0 ± 3.4 mM and the Creatinine came out at 0.30 ± 0.04 mg/dL. The “effect on hyponatremia and hypocalcemia” value in data set [5] (sRA mice, chronic tolvaptan 22 ng/h sc, 10 days) is “corrected both of these imbalances”. Further, the radiotelemetric blood pressure entry in the data set with sRA mice [6] was “blood pressure reduction was confirmed”.
Consider `Cc1nc2c([nH]1)-c1ccccc1N(C(=O)c1ccc(NC(=O)c3ccccc3-c3ccccc3)cc1)CC2` [conivaptan], for which the “systolic blood pressure (tail-cuff), effect on hypertension” value in the data set with sRA mice [4] is given as “complete normalization of the hypertension”. In the data set on sRA mice [6] (setting [7]), the “heart rate (telemetry)” value was “slight reduction in heart rate” and the spontaneous physical activity entry was “remained normal”. The radiotelemetric blood pressure result with sRA mice [6] is listed as “gradual but substantial reduction in blood pressure”.
In the case of `[Cl-].[K+]` [potassium chloride], the “constrictor response to potassium chloride” value in the data set with abdominal aorta [1] (aortic rings from sRA mice vs control, 100 mmol/l KCl) is listed as “normal constrictor responses”. Besides, in data set [3] (mesenteric artery branches of sRA mice vs control, 100 mM KCl), the “contractile response to potassium chloride” value is “significant reduction in contractile response”.

Values taken from patent US20150377876A1, “DIAGNOSTIC TOOLS TO PREDICT ONSET OF PREECLAMPSIA” (UNIVERSITY OF IOWA RESEARCH FOUNDATION, priority 2013, published 2015).
